Experimental data published in publication PMC7156724, “Potent BRD4 inhibitor suppresses cancer cell-macrophage interaction” (Nature Communications, 2020).
“And” between values parts separate entries of the source, which are not always exact repeats. Equal entries are not always repeated.

Tests used:
[1] = Metabolic stability assay, mouse liver microsomes; settings: for Remaining in mouse liver microsomes (Sup Fig.6a): in % (unit assumed)
Description: 7. Metabolic stability assay. The metabolic profile of NHWD-870 was determined using mouse, rat, dog, monkey, and human liver microsomes using the protocols […]
No. Compound ID Exat Mass Stock Conc.
1) 100 mM potassium phosphate buffer, PH7.4; 2) 10mM MgCI2
1) Intermediate solution: Dilute 5 μL of compound or control from stock solution (10 mM) with 45 uL DMSO,then mixed with 450 μL 1:1 Methanol/Water (Conc.: 10 0 […]
2) Working solution: Dilute 50 μL from intermediate solution with 450 μL 100 mM potassium phosphate buffer (Conc.: 10 μM, 4.5%MeOH)
(3) NADPH regenerating system (final Isocitric dehydrogenase conc.= 1 unit/mL at […]
1) β-Nicotinamide adenine dinucleotide phosphate, Vendor: sigma Cat. No. N0505
2) Isocitric acid, Vendor: Sigma Cat. No. I1252
3) Isocitric dehydrogenase, Vendor: sigma Cat. No. I2002
(4) Liver microsome solution preparation (final concentration o f 0.5 mg protein/mL) […]
Cold ACN including 100 ng/mL Tolbutamide and 100 ng/mL Labetalol as internal […]
1) Add 10 μL compound or control working solution/well to all plates (T0, T5, T10, T20, T30, T60, NCF60) except matrix blank.
2) Dispense 680 μL/well microsome solution to 96-well plate as reserv oir according to […]
plate map. Then add 80 μL/well to every plate by Apricot, incubate the mixture of microsome solution and compound at 37℃ for about 10 min.
3) Add 10 μL 100 mM potassium phosphate buffer/well to NCF60, incubate at 37℃, […]
4) After pre-warming, dispense 90 μL/well NADPH regenerating system to 96-well plate as reservoir according to the plate map. Then add 10 μL/well to every plate by Apricot to start reaction.
5) Incubate at 37℃, start timer 2.
6) Add 300 (μL/well) stop solution (cold in 4℃, including 100 ng/mL Tolbutamide and 100 ng/mL Labetalol) to terminate the reaction.
7) The sampling plates are shaked for approx 10 min.
8) Samples are centrifuged at 4000 rpm for 20 min under 4℃.
9) While centrifuging, load 8×new 96-well plate with 300 μL HPLC water, then transfer 100 μL supernatant, mixed for LC/MS/MS.
Use equation of first order kinetics to calculate t1/2 and Clin t(mic): […]
Equation of first order kinetics: […]

CSF1 protein = test: ELISA of CSF1 protein in supernatant of human tumor cells (A2780, SKOV3, A375); assay type: cell-based; settings: 10^6 A375 cells, 25 nM, 24 h
Description: A2780 tumor cells were pretreated with 100 nM NHWD-870 and then directly co-cultured with TAMs (A2780:TAMs ratio as 4:1) at the density of 1 × 10^5 total cells in a 12-well. Shown are immunofluorescent staining of Ki67 and CD68 (a) and quantification of Ki67+ and CD68− or CD68+ cells (b). Scale bar is 50 μm. […] A2780 cells (pre-treated with or without 100 nM NHWD-870 for 48 h) were seeded into the top chamber (transwell size: 0.4 μm) and TAMs (Mac, 40,000 cells per 24-well) in medium containing 2% matrigel were seeded into the bottom chamber pre-coated with Matrigel. No NHWD-870 was added to the co-culture. The upper chamber without A2780 cells was used as a control. Shown are schematics of transwell co-culture experiment (c), representative pictures of TAM spheroid (d: black/white), and quantification of spheroid volumes (e). Scale bar is 50 μm. […] Data are presented as mean ± SEM from three independent experiments. g CSF1 protein levels in supernatant of 10^6 ID8, B16, A2780, SKOV3, and A375 cells treated with DMSO or 25 nM NHWD-870 for 24 h, as measured by ELISA. […] Scale bar is 20 μm. i Quantification of CSF1 staining in DMSO or 100 nM NHWD-870 treated A2780 cells. […] Shown are representative immunofluorescent staining of CSF1 (green) and CD68 (red) (j) and quantification of CSF1 staining (k). […]

[2] = mouse, liver microsomes, pH 7.4

Cc1nnn(C)c1-c1cnc2c3c4cnn(C)c4ccc3n([C@H](c3ccccc3)C3CCOCC3)c2c1 [NHWD-870]
Remaining (T=60min) ([1]; mouse liver microsomes): 36.2% | Remaining (*NCF=60min) ([1]; mouse liver microsomes, no cofactor): 70.1% | CLint scaled at 1 µM [1, 2]: 139 mL/min/kg | half-life at 1 µM [1, 2]: 39.4 min | microsomal CLint at 1 µM ([1]; mouse, microsomes, pH 7.4): 35.2 µL/min/mg | Remaining in mouse liver microsomes (Sup Fig.6a) ([1]; time 0): 100 | Remaining in mouse liver microsomes (Sup Fig.6a) ([1]; time 5): 95.208 | Remaining in mouse liver microsomes (Sup Fig.6a) ([1]; time 10): 82.243 | Remaining in mouse liver microsomes (Sup Fig.6a) ([1]; time 20): 62.59 | Remaining in mouse liver microsomes (Sup Fig.6a) ([1]; time 30): 51.73 | Remaining in mouse liver microsomes (Sup Fig.6a) ([1]; time 60): 36.198 | CSF1 protein levels in supernatant (ELISA) (CSF1 protein): 26 and 36 and 31
